± gives the expanded uncertainty stated by the source.
Test: molar enthalpy of vaporization or sublimation
Conditions: 298 K; Liquid; Chromatographic retention time

| Structure (SMILES) | molar enthalpy [kcal/mol] |
| --- | --- |
| CCCCOC(=O)c1ccccc1C(=O)OCc1ccccc1 [benzyl butyl 1,2-benzenedioate] | 26.24 ± 0.0478 |
| CCCCC(CC)COC(=O)c1ccccc1C(=O)OCC(CC)CCCC (configuration not stated) [bis(2-ethylhexyl) 1,2-benzenedicarboxylate] | 27.94 ± 0.0239 |
| CCCCOC(=O)c1ccccc1C(=O)OCCCC [dibutyl phthalate] | 23.73 ± 0.0239 |
| CCOC(=O)c1ccccc1C(=O)OCC [diethyl phthalate] | 21.18 ± 0.0239 |
| COC(=O)c1ccccc1C(=O)OC [dimethyl 1,2-benzenedicarboxylate] | 20.12 ± 0.0239 |
| CCCCCCCCOC(=O)c1ccccc1C(=O)OCCCCCCCC [dioctyl 1,2-benzenedicarboxylate] | 29.33 ± 0.0478 |
| CCCCCCCCCCCCCCCCCCCCCC [docosane] | 26.29 ± 0.239 |
| CCCCCCCCCCCCCCCCCCCC [eicosane] | 24.833 ± 0.0239 |
| CCCCCCCCCCCCCCCCCC(=O)OCC [ethyl octadecanoate] | 26.12 ± 0.12 |
| CCCCCCCCCCCCCCCCCCCCCCCCCC [hexacosane] | 29.16 ± 0.239 |
| CCCCCCCCCCCCCCCCCCCC(=O)OC [methyl eicosanoate] | 26.554 ± 0.0239 |
| CCCCCCCCCCCCCCCCCCCCC(=O)OC [methyl heneicosanoate] | 27.796 ± 0.0239 |
| CCCCCCCCCCCCCCCC(=O)OC [methyl hexadecanoate] | 24.331 ± 0.0239 |
| CCCCCCCCCCCCCCCCCC(=O)OC [methyl octadecanoate] | 25.789 ± 0.0239 |
| CCCCCCCCCCCCCCCCCCCCCCCCCCCC [octacosane] | 30.74 ± 0.12 |
| CCCCCCCCCCCCCCCCCCCCCCCCC [pentacosane] | 28.466 ± 0.0239 |
| CCCCCCCCCCCCCCCCCCCCCCCC [tetracosane] | 27.749 ± 0.0239 |

Source: the NIST ThermoML archive (doi:10.1021/acs.jced.5b00444)
